Measured values from US20260248774A1, “INHIBITORS OF BACTERIAL TYPE III SECRETION SYSTEM” (MICROBIOTIX, INC., priority 2022, published 2026).
Converted amounts (≈) assume the structure as drawn. Where two headings read alike, the source gives them in different places.

Key:
[1] = system: P. aeruginosa T3SS-mediated secretion (exoT-luxCDABE reporter strain MDM852); assay: Luciferase (exoT-lux) transcriptional reporter assay of T3SS-mediated secretion; type: cell-based, Pseudomonas aeruginosa
Text: Luciferase Transcriptional Reporter Assay of T3SS-Mediated Secretion with a Luminescent Signal.
A transcriptional fusion of the Photorhabdus luminescens lux operon (luxCDABE) to P. aeruginosa PAO1 T3SS effector gene exoT (PA0044) was constructed and used to build strain MDM852 as described previously (Aiello et al., 2010, Antimicrob Agents Chemother, 54:1988-1999). Induction of T3SS operons by Ca^++ depletion due to EGTA addition results in secretion of the T3SS negative regulator ExsE and the production of high levels of T3SS components including the luxCDABE gene products, which results in luminescence that is easily detected by a microplate reader. Inhibition of T3SS-mediated secretion of the negative regulator ExsE by a small molecule inhibitor causes reduced production of luxCDABE gene products and reduced luminescence. For inhibitor IC50 testing, compounds were added to a 96-well microplate in a concentration dilution series. Reporter strain MDM852 was grown at 37° C. in LBG to OD600 ~0.025-0.05, transferred into the microplate (50 uL/well) containing test compounds and EGTA (5 uL of 0.1 M stock solution), which was covered with a translucent gas-permeable seal (Abgene, Inc., Cat. No. AB-0718). […] Plates were incubated at room temperature for 300 min. Then, luminescence was measured in an Envision Multilabel microplate reader (PerkinElmer). The screening window coefficient, Z′-factor (see Zhang, et al., 1999, J. Biomol. Screen., 4:67-73), defined as the ratio of the positive and negative control separation band to the signal dynamic range of the assay, averaged 0.7 for the assay.

[2] = system: T3SS-mediated translocation of ExoU by P. aeruginosa strain MDM1561 (PA99U) into CHO cells; assay: P. aeruginosa ExoU-dependent CHO cell killing assay for T3SS-mediated translocation; type: cell-based, Pseudomonas aeruginosa; conditions: for EC50: read-out: Translocation EC50; for potency of inhibition of T3SS-mediated translocation: assessment in text on Table 1
Text: P. aeruginosa ExoU-Dependent CHO Cell Killing.

[3] = system: P. aeruginosa T3SS-mediated secretion of ExoS-β-lactamase fusion protein; assay: Effector-β-lactamase (ExoS-βLA) reporter assay of T3SS-mediated secretion; type: cell-based, Pseudomonas aeruginosa; conditions: read-out: ExoS-BLA IC50
Text: Effector-β-Lactamase (βLA) Reporter Assay of T3SS-Mediated Secretion with an Absorbency Signal.
A gene encoding the exoS promoter/regulatory region and an ExoS-β-lactamase (βLA) fusion protein (comprised of the full length P. aeruginosa T3SS effector ExoS fused in reading frame to the TEM-1 β-lactamase gene lacking secretion signal codons) was constructed by splicing by overlap extension PCR (SOE-PCR) (Choi and Schweizer, 2005, BMC Microbiol., 5:30), sequence confirmed, cloned into miniCTX and introduced into P. aeruginosa strain PAO1 to generate strains MDM1746 and MDM1838 as previously described for strain MDM1710 (Bowlin et al., 2014, Antimicrob Agents Chemother., 58:2211-2220). Secretion of ExoS-β-lactamase fusion protein following EGTA addition to induce the T3SS operons was detected by measuring the hydrolysis of the chromogenic β-lactamase substrate nitrocefin in clear 96-well microplates in a modification of a previously described assay (Lee, et al., 2007, Infect. Immun., 75:1089-98). Cells of strain MDM1746, or negative control MDM1838 (which fails to carry out T3SS secretion due to ΔpscF), were sub-cultured in the morning from overnight growths in LBG into 0.1 ml of LBGE with or without test compounds and grown for 150 min. Nitrocefin (100 μg/mL final) was added, and A490 measurements taken every minute for 15 min in a Victor^3V 1420 Multilabel HTS Counter (PerkinElmer). Slopes were calculated as a relative measure of the quantity of the effector-βLA fusion protein secreted and were absolutely dependent on induction with EGTA, and the presence of a functional pscF gene in the P. aeruginosa cells. Typical signal: background ratios were 6-10.

[4] = Kinetic aqueous solubility (nephelometric assay); type: physicochemical; conditions: for Sol: Table 1; for solubility kinetic: kinetic from dmso stock, Table 9, kinetic solubility in water (nephelometric assay)
Text: Solubility. The maximum aqueous solubility of analogs will be initially determined by nephelometry using a published method (44).

[5] = Mammalian cytotoxicity (CC50), MTS conversion; type: cell-based, human; conditions: human
Method: (§1) Determination of Mammalian Cytotoxicity.
(§2) Following incubation for 3 days at 37° C. in VP-SFM, cell viability was measured with the vital tetrazolium salt stain 3-(4,5-dimethylthiazol-2-yl)-2,5 diphenyltetrazolium bromide according to the manufacturer's instructions (Promega, Madison, Wisconsin). Values were determined in triplicate using dilutions of inhibitory compound from 100 μM to 0.2 μM.

[6] = system: HeLa cells; assay: Mammalian cytotoxicity (CC50), MTS conversion; type: cell-based, human; conditions: assessment in text on Table 1
Method: as §1, §2

[7] = Single dose pharmacokinetic (PK) determination in mice; parameters: species or system CD-1 mice; conditions: in vivo
[8] = system: T3SS translocation, clinical isolates of Pseudomonas aeruginosa
[9] = read-out: LUX Sec IC50, Table 1
[10] = HeLa cells, Table 1, HeLa, read-out: Cytotox-HeLa CC50
[11] = Table 9, cytotoxicity vs. HeLa cells, read-out: Cytotox CC50

SMILES	IC50 [1, 9] [µM]	EC50 ([2]; Table 1) [µM]	IC50 ([3]; Table 1) [µM]	solubility kinetic [4] [µM]	CC50 at 3 days [5, 11] [µM]	further results
CC(Oc1ccc(Cl)cc1Cl)C(=O)NCc1ccc2c(c1)OCO2 (stereo not drawn) [MBX-1641, N-(benzo[d][1,3]dioxol-5-ylmethyl)-2-(2,4-dichlorophenoxy)propanamide, reference compound]	4.7	15	10	–	–	IC50 ([1]; read-out: LUX IC50, Table 6): 4.7 µM; EC50 ([2]; Table 6): 15 µM; IC50 ([3]; Table 6): 10 µM
CCC(Oc1ncc(Cl)cc1Cl)C(=O)NCc1ccc2c(c1)OCO2 (stereo not drawn) [MBX-2263]	2.7	17	2	–	–	Sol [4]: 25 µM; solubility for formulation ([4]; assessment in text on Table 1): not soluble enough; CC50 at 3 days [5, 10]: > 100 µM
CCC(Oc1ncc(Cl)cc1Cl)C(=O)NCc1ccc(F)cc1 (stereo not drawn) [MBX-2264]	2	> 35	2	–	–	Sol [4]: 200 µM; CC50 at 3 days [5, 10]: 85 µM; potency of inhibition of T3SS-mediated translocation [2]: not quite potent enough
CCC(Oc1ncc(Cl)cc1Cl)C(=O)NCc1ccc2sccc2c1 (stereo not drawn) [MBX-2359, reference compound]	1.3	–	1.5	–	–	IC50 ([1]; read-out: LUX IC50, Table 6): 1.3 µM; IC50 ([3]; Table 6): 1.5 µM
CC(Oc1ccc(Cl)cc1Cl)C(=O)NCc1cc2ccccc2[nH]1 (stereo not drawn) [MBX-2624]	8.7	17	9	–	–	Sol [4]: 100 µM; CC50 at 3 days [5, 10]: 9 µM; cytotoxicity [6]: exhibit cytotoxicity
CC(Oc1ccc(Cl)cc1Cl)C(=O)NC(CO)c1ccc(F)cc1 (stereo not drawn) [MBX-2625]	7.1	22	5	–	–	–
CC(Oc1ccc(Cl)cc1Cl)C(=O)NCC(O)c1ccc(F)cc1 (stereo not drawn) [MBX-2785]	18	25	15	–	–	potency of inhibition of T3SS-mediated translocation [2]: not quite potent enough
CC(=O)Nc1ccc(CCNC(=O)C(C)Oc2ccc(Cl)cc2Cl)cc1 (stereo not drawn) [MBX-2837]	3.5	13	9	–	–	–
CC[C@@H](Oc1ncc(Cl)cc1Cl)C(=O)NCc1ccc2cc(CN(C)C)[nH]c2c1 [MBX-2867]	1.6	5.8	1.3	–	–	Sol [4]: 3000 µM; CC50 at 3 days [5, 10]: 30 µM; cytotoxicity [6]: exhibit cytotoxicity
CC[C@@H](Oc1ncc(Cl)cc1Cl)C(=O)NC(CO)Cc1ccc(F)cc1 (stereo partly drawn) [MBX-3323]	5.2	13	5	–	–	potency of inhibition of T3SS-mediated translocation [2]: not quite potent enough
CC[C@@H](Oc1ncc(Cl)cc1Cl)C(=O)NCCc1ccc(NC(C)=O)cc1 [MBX-3337]	1.4	4.8	1.2	–	–	–
CC[C@@H](Oc1ncc(Cl)cc1Cl)C(=O)NCc1ccc2cc(C(=O)N3CCOCC3)[nH]c2c1 [MBX-3458]	3.7	5.2	0.9	–	–	Sol [4]: 25 µM; half-life in mice [7]: short half-lives in mice; CC50 at 3 days [5, 10]: 100 µM
CC[C@@H](Oc1ncc(Cl)cc1Cl)C(=O)NCc1cccc(CN)c1 [MBX-4565]	8.3	20	9	–	–	–
CC[C@@H](Oc1ncc(Cl)cc1Cl)C(=O)N[C@@H](CO)Cc1ccc(F)cc1 [MBX-4567]	8.5	60	14	–	–	potency of inhibition of T3SS-mediated translocation [2]: not quite potent enough
CC[C@@H](Oc1ncc(Cl)cc1Cl)C(=O)NCc1cccc(C(=O)NC2CNC2)c1 [MBX-5031]	0.2	1.7	1.7	–	–	–
CC[C@@H](Oc1ncc(Cl)cc1Cl)C(=O)NCc1cccc(C(=O)NC2CN(CCC(=O)[O-])C2)c1.[Li+] [MBX-5427A]	–	–	–	100	≥ 200	–
CC[C@@H](Oc1ncc(Cl)cc1Cl)C(=O)NCc1cccc(C(=O)NC2CN(CCCC(=O)[O-])C2)c1.[Li+] [MBX-5430A]	–	–	–	200	≥ 200	–

SMILES	IC50 [1, 9] [µM]	EC50 ([2]; Table 1) [µM]	IC50 ([3]; Table 1) [µM]	solubility kinetic [4] [µM]	CC50 at 3 days [5, 11] [µM]	further results
CC[C@@H](Oc1ncc(Cl)cc1Cl)C(=O)NCc1cccc(NC(=O)NC2CN(CCC(=O)[O-])C2)c1.[Li+] [MBX-5442A]	–	–	–	200	≥ 200	–
CC[C@@H](Oc1ncc(Cl)cc1Cl)C(=O)NCc1cccc(NC(=O)NC2CC3(C2)CN(CCC(=O)O)C3)c1 [MBX-5452A]	–	2.7	–	–	–	EC50 [8]: 0.74 µg/mL (≈ 1.31 µM); EC50 ([2]; Table 6): 2.7 µM
CC[C@@H](Oc1ncc(Cl)cc1Cl)C(=O)NCc1cccc(C(=O)NC2CN(CC(=O)[O-])C2)c1.[Li+] [MBX-5454A]	–	–	–	200	≥ 100	–
CC[C@@H](Oc1ncc(Cl)cc1Cl)C(=O)NCc1cccc(CNC2CC(C(=O)[O-])C2)c1.[Li+] (stereo partly drawn) [MBX-5456A]	–	–	–	200	107	–
CC[C@@H](Oc1ncc(Cl)cc1Cl)C(=O)NCc1cccc(C(=O)NCC2CC3(C2)CN(CCC(=O)[O-])C3)c1.[Li+] [MBX-5522A]	–	–	–	≥ 400	–	–
CC[C@@H](Oc1ncc(Cl)cc1Cl)C(=O)NCc1cccc(C(=O)NC2CC3(C2)CN(CCCC(=O)[O-])C3)c1.[Li+] [MBX-5524A]	–	–	–	≥ 400	–	–
CC[C@@H](Oc1ncc(Cl)cc1Cl)C(=O)NCc1cccc(C(=O)NC2CC3(C2)CN(CC(=O)[O-])C3)c1.[Li+] [MBX-5527A]	–	–	–	≥ 400	–	–
CC[C@@H](Oc1ncc(Cl)cc1Cl)C(=O)NCc1cccc(C(=O)N2CC3(CC(NCCC(=O)[O-])C3)C2)c1.[Li+] [MBX-5529A]	–	–	–	≥ 400	–	–
CC[C@@H](Oc1ncc(Cl)cc1Cl)C(=O)NCc1cccc(CC(=O)NC2CC3(C2)CN(CCC(=O)[O-])C3)c1.[Li+] [MBX-5548A]	–	–	–	200	–	–
CC[C@@H](Oc1ncc(Cl)cc1Cl)C(=O)NCc1cccc(NC(=O)N2CC3(CN(CC(C)(C)C(=O)[O-])C3)C2)c1.[Li+] [MBX-7061A]	–	–	–	1.1	–	–
CC[C@@H](Oc1ncc(Cl)cc1Cl)C(=O)NCc1cccc(NC(=O)N2CC3(CN(CCC(=O)[O-])C3)C2)c1.[Li+] [MBX-7062A]	–	–	–	3.5	–	–
CC[C@@H](Oc1ncc(Cl)cc1Cl)C(=O)NCc1cccc(NC(=O)NCC2CN(CC(=O)O)C2)c1 [MBX-7438A]	–	–	–	–	≥ 200	–
CC[C@@H](Oc1ccc(Cl)c(Cl)c1Cl)C(=O)NCc1cccc(NC(=O)NC2CC3(C2)CN(CC(=O)O)C3)c1 [MBX-7476A]	–	–	–	–	≥ 200	–
CC[C@@H](Oc1ccc(Cl)c(Cl)c1Cl)C(=O)NCCc1cccc(NC(=O)NC2CC3(C2)CN(CCC(=O)O)C3)c1 [MBX-7477A]	–	–	–	–	≥ 200	–
CC[C@@H](Oc1ccc(Cl)c(Cl)c1Cl)C(=O)NCCc1cccc(NC(=O)NC2CC3(C2)CN(CC(=O)O)C3)c1 [MBX-7478A]	–	–	–	–	≥ 200	–
CC[C@@H](Oc1ncc(Cl)cc1Cl)C(=O)NCc1cccc(NC(=O)NCCNCC(=O)O)c1 [MBX-7497A]	–	–	–	–	≥ 200	–
CC[C@@H](Oc1ncc(Cl)cc1Cl)C(=O)NCc1cccc(NC(=O)NC2COCC(NCCC(=O)O)C2)c1 (stereo partly drawn) [MBX-7531A]	–	–	–	–	≥ 200	–
